# From US20220387417A1, “Pharmaceutical Combination and Use Thereof” (CSTONE PHARMACEUTICALS (SUZHOU) CO., LTD., priority 2019, published 2022)
# Values joined by “and” are separate entries in the source; they are usually repeats but may differ in a detail not shown here. Equal entries are not always repeated. Structures can show the parent of a compound that is named as a salt.
# Legend:
# [1] = system: subcutaneous MC38-hPD-L1 transplanted tumor; assay: Antibody 1.14.4 monotherapy or in combination with Lenvatinib mesylate on B-hPD-1 humanized mouse MC38-hPD-L1 colon cancer model: tumor volume, tumor weight, TGI, synergy score; format: in vivo
# Protocol: (§1) Mouse colon cancer cells MC38 were purchased from Shun Ran (Shanghai) Biotechnology Co., Ltd., and the cells were cultured in a 37° C., 5% CO2 incubator supplemented with Dulbecco's Modified Eagle's medium containing 10% inactivated fetal bovine serum. MC38 cells were genetically modified to overexpress human PD-L1 and knock out murine PD-L1, the modified cells were named as MC38-hPD-L1 cells.
# (§2) MC38-hPD-L1 tumor cells were resuspended in 1×PBS to a concentration of 5×10^6 cells/mL. Each of the B-hPD-1 humanized mice was subcutaneously inoculated at the right lateral thorax region with 0.1 mL of the cell suspension, and a total of 85 mice were inoculated. On the 7th day after inoculation, when the average tumor volume reached about 103 mm^3, the mice with moderate tumor volume were selected and randomly divided into 8 groups according to tumor volume, with 7 mice in each group, and the treatment was initiated on the same day.
# Tumor volume was measured three times a week in two dimensions using a caliper, and the volume was expressed in mm^3 using the formula: V=0.5 a×b^2 where a and b were the long and short diameters of the tumor, respectively.
# (§3) At the termination of the experiment, the animals were photographed to record the tumor bearing state after euthanasia, and the tumors of the mice were weighed and photographed.
# TGITV(%)=[1−(Ti−T0)/(Vi−V0)]×100%.
# Ti: tumor volume of the treatment group at day i following treatment; T0: tumor volume of the treatment group at day 0 following treatment; Vi: tumor volume of the control group at day i following treatment; V0: tumor volume of the control group at day 0 following treatment.
# At the termination of the experiment, the animals were euthanized, the tumors were separated and weighed, and the difference of tumor weight between each group was calculated. Tumor weight inhibition (TGITW) was calculated by the formula:
# TGITW (%)=(WC−WT)/[…]×100%; where We means tumor weight of control group, WT means tumor weight of treatment group.
# (§4) The original data measured and observed must be recorded. The original data was analyzed and the results were expressed by mean and standard error (Mean±SEM). The data of body weight, tumor volume and tumor weight was statistically analyzed using independent-samples t-test. All data were analyzed using SPSS, P<0.05 is considered to be statistically significant. The results of the analysis were considered both statistical significance and biological significance.
# (§5) Synergy score was calculated using the following formula described in Clarke R. Issues in experimental design and endpoint analysis in the study of experimental cytotoxic agents in vivo in breast cancer and other models[J]. Breast Cancer Research & Treatment, 1997, 46(2-3):255-278, which is incorporated by reference in its entirety:
# (§6) Synergy score=((A/C)×(B/C))/(AB/C);
# (§7) where A is RTV value of drug A; B is RTV value of drug B; C is RTV value of vehicle control; AB is RTV value of combination treatment with A and B respectively. • Synergy score>1 represents synergistic; • Synergy score=1 represents additive; • Synergy score<1 represents antagonistic.
# (§8) where V0 and Vt are the average tumor volume at the start of treatment (day 0) and the average tumor volume on a certain time point (day t).
# [2] = Body weight of B-hPD-1 mice bearing MC38-hPD-L1 tumors, Embodiment 1 (antibody 1.14.4 / Lenvatinib mesylate); format: in vivo, Mus musculus
# Protocol: as §2
# (§9) Animals were weighed 2-3 times a week before tumor inoculation, during animal grouping and the treatment, and before the euthanasia.
# as §4
# [3] = system: subcutaneous MC38-hPD-L1 transplanted tumor; assay: Antibody 2E5 monotherapy or in combination with Lenvatinib mesylate on B-hPD-1 humanized mouse MC38-hPD-L1 colon cancer model: tumor volume, tumor weight, TGI, synergy score; format: in vivo
# Protocol: as §5, §6, §7, §8, §1
# as §2, with “of 5×10^5 cells per 0.1 mL.” for “of 5×10^6 cells/mL.”, “cell suspension. When” for “cell suspension, and a total of 85 mice were inoculated. On the 7th day after inoculation, when”, “about 77” for “about 103”, “into 6” for “into 8”, “with 10” for “with 7”
# Tumor volume was measured 2-3 times a week in two dimensions using a caliper, and the volume was expressed in mm^3 using the formula: V=0.5 a×b^2 where a and b were the long and short diameters of the tumor, respectively.
# as §3
# TGITV(%)=[1−(Ti−T0)/(Vi−V0)]×100%. […]
# At the termination of the experiment, the animals were euthanized, the tumors were separated and weighed, and the difference of tumor weight between each group was calculated. Tumor weight inhibition (TGITW) was calculated by the formula: […]
# as §4, with “significant.” for “significant. The results of the analysis were considered both statistical significance and biological significance.”
# [4] = Body weight of B-hPD-1 humanized mice bearing MC38-hPD-L1 tumors, Embodiment 2 (antibody 2E5 / Lenvatinib mesylate); format: in vivo, Mus musculus
# Protocol: as §2, with “of 5×10^5 cells per 0.1 mL.” for “of 5×10^6 cells/mL.”, “cell suspension. When” for “cell suspension, and a total of 85 mice were inoculated. On the 7th day after inoculation, when”, “about 77” for “about 103”, “into 6” for “into 8”, “with 10” for “with 7”
# as §9
# as §4, with “significant.” for “significant. The results of the analysis were considered both statistical significance and biological significance.”
# [5] = 17th day after the start of treatment, Antibody 2E5 1 mg/kg i.p., Lenvatinib mesylate 1 mg/kg p.o. QD (G2, G4, G5)
compound,measurement,setting,value
"COc1cc2nccc(Oc3ccc(NC(=O)NC4CC4)c(Cl)c3)c2cc1C(N)=O [Lenvatinib mesylate, reference compound]",Tumor volume (mm^3)/Mean ± SEM Day 16,"[1]; 16th day after the start of treatment, antibody 1.14.4 3 mg/kg Q2D i.p., Lenvatinib mesylate 1 mg/kg QD p.o.",1333 ± 261 mm^3
same,Tumor volume (mm^3)/Mean ± SEM Day 0,"[1]; Day 0, Antibody 1.14.4 3 mg/kg, Lenvatinib mesylate 1 mg/kg, Table 11",103 ± 8 mm^3
same,Tumor volume (mm^3)/Mean ± SEM Day 0,"[1]; Day 0 = day of the start of treatment, antibody 1.14.4 3 mg/kg, Lenvatinib mesylate 1 mg/kg, Table 10",103 ± 8 mm^3
same,Tumor volume (mm^3)/Mean ± SEM Day 20,"[1]; Day 20, Antibody 1.14.4 3 mg/kg Q2D i.p., Lenvatinib mesylate 1 mg/kg QD p.o.",1726 ± 374 mm^3
same,Tumor weight (g) Mean ± SEM,"[1]; Day 20, antibody 1.14.4 3 mg/kg, Lenvatinib mesylate 1 mg/kg, Table 13",1.244 ± 0.292 g
same,"Tumor weight (g), group Mean","[1]; group mean (7 mice), Day 20, Antibody 1.14.4 3 mg/kg, Lenvatinib mesylate 1 mg/kg",1.244 g
same,"Tumor weight (g), individual animal","[1]; individual mouse, 20th day after the start of treatment, Antibody 1.14.4 3 mg/kg Q2D i.p., Lenvatinib mesylate 1 mg/kg QD p.o.",1.039 g and 2.048 g and 2.485 g and 0.652 g and 0.408 g and 1.362 g and 0.715 g
same,TGITV (%),"[1]; tumor growth inhibition by tumor volume, Day 16, vs hIgG4 control, antibody 1.14.4 3 mg/kg, Lenvatinib mesylate 1 mg/kg",38.8%
same,TGITW,"[1]; tumor weight inhibition vs hIgG4 control, Day 20, Antibody 1.14.4 3 mg/kg, Lenvatinib mesylate 1 mg/kg",21.3%
same,Weight (g)/Mean ± SEM Day 16,"[2]; 16th day after the start of treatment, Antibody 1.14.4 3 mg/kg, Lenvatinib mesylate 1 mg/kg",22.5 ± 0.2 g
same,Weight (g)/Mean ± SEM Day 0,"[2]; Day 0 = day of the start of treatment, Antibody 1.14.4 3 mg/kg, Lenvatinib mesylate 1 mg/kg",19.9 ± 0.3 g
same,Weight (g) Changes,"[2]; Day 16 vs Day 0, Antibody 1.14.4 3 mg/kg, Lenvatinib mesylate 1 mg/kg",+2.6 g
same,"Days after the start of treatment/weight (g), group Mean, day 0","[2]; group mean (7 mice), day 0, Antibody 1.14.4 3 mg/kg Q2D i.p., Lenvatinib mesylate 1 mg/kg QD p.o.",19.9 g
same,"Days after the start of treatment/weight (g), group Mean, day 3","[2]; group mean (7 mice), day 3, Antibody 1.14.4 3 mg/kg Q2D i.p., Lenvatinib mesylate 1 mg/kg QD p.o.",19.5 g
same,"Days after the start of treatment/weight (g), group Mean, day 6","[2]; group mean (7 mice), day 6, Antibody 1.14.4 3 mg/kg Q2D i.p., Lenvatinib mesylate 1 mg/kg QD p.o.",20.3 g
same,"Days after the start of treatment/weight (g), group Mean, day 8","[2]; group mean (7 mice), day 8, Antibody 1.14.4 3 mg/kg Q2D i.p., Lenvatinib mesylate 1 mg/kg QD p.o.",20.5 g
same,"Days after the start of treatment/weight (g), group Mean, day 10","[2]; group mean (7 mice), day 10, Antibody 1.14.4 3 mg/kg Q2D i.p., Lenvatinib mesylate 1 mg/kg QD p.o.",20.9 g
same,"Days after the start of treatment/weight (g), group Mean, day 12","[2]; group mean (7 mice), day 12, Antibody 1.14.4 3 mg/kg Q2D i.p., Lenvatinib mesylate 1 mg/kg QD p.o.",21.2 g
same,"Days after the start of treatment/weight (g), group Mean, day 14","[2]; group mean (7 mice), day 14, Antibody 1.14.4 3 mg/kg Q2D i.p., Lenvatinib mesylate 1 mg/kg QD p.o.",22.3 g
same,"Days after the start of treatment/weight (g), group Mean, day 16","[2]; group mean (7 mice), day 16, Antibody 1.14.4 3 mg/kg Q2D i.p., Lenvatinib mesylate 1 mg/kg QD p.o.",22.5 g
same,"Days after the start of treatment/weight (g), group Mean, day 19","[2]; group mean (7 mice), day 19, Antibody 1.14.4 3 mg/kg Q2D i.p., Lenvatinib mesylate 1 mg/kg QD p.o.",21.9 g
same,"Days after the start of treatment/weight (g), group Mean, day 20","[2]; group mean (7 mice), day 20, Antibody 1.14.4 3 mg/kg Q2D i.p., Lenvatinib mesylate 1 mg/kg QD p.o.",22.7 g
same,"Days after the start of treatment/weight (g), individual animal, day 0","[2]; individual mouse, day 0, Antibody 1.14.4 3 mg/kg Q2D i.p., Lenvatinib mesylate 1 mg/kg QD p.o.",18.6 g and 19.5 g and 19.4 g and 20.0 g and 20.2 g and 20.8 g (2×)
same,"Days after the start of treatment/weight (g), individual animal, day 3","[2]; individual mouse, day 3, Antibody 1.14.4 3 mg/kg Q2D i.p., Lenvatinib mesylate 1 mg/kg QD p.o.",18.8 g and 19.2 g and 18.9 g and 19.7 g and 19.3 g and 20.3 g and 20.2 g
same,"Days after the start of treatment/weight (g), individual animal, day 6","[2]; individual mouse, day 6, Antibody 1.14.4 3 mg/kg Q2D i.p., Lenvatinib mesylate 1 mg/kg QD p.o.",19.4 g and 20.1 g and 19.8 g and 20.6 g and 20.3 g and 21.2 g and 20.8 g
same,"Days after the start of treatment/weight (g), individual animal, day 8","[2]; individual mouse, day 8, Antibody 1.14.4 3 mg/kg Q2D i.p., Lenvatinib mesylate 1 mg/kg QD p.o.",19.5 g and 20.6 g and 20.4 g and 20.7 g and 20.3 g and 21.0 g (2×)
same,"Days after the start of treatment/weight (g), individual animal, day 10","[2]; individual mouse, day 10, Antibody 1.14.4 3 mg/kg Q2D i.p., Lenvatinib mesylate 1 mg/kg QD p.o.",20.2 g and 21.1 g and 20.1 g and 21.5 g and 20.4 g and 21.7 g and 21.4 g
same,"Days after the start of treatment/weight (g), individual animal, day 12","[2]; individual mouse, day 12, Antibody 1.14.4 3 mg/kg Q2D i.p., Lenvatinib mesylate 1 mg/kg QD p.o.",20.1 g and 21.1 g (2×) and 21.4 g and 20.7 g and 22.2 g and 21.6 g
same,"Days after the start of treatment/weight (g), individual animal, day 14","[2]; individual mouse, day 14, Antibody 1.14.4 3 mg/kg Q2D i.p., Lenvatinib mesylate 1 mg/kg QD p.o.",20.9 g and 22.9 g and 22.0 g (2×) and 22.2 g and 23.0 g (2×)
same,"Days after the start of treatment/weight (g), individual animal, day 16","[2]; individual mouse, day 16, Antibody 1.14.4 3 mg/kg Q2D i.p., Lenvatinib mesylate 1 mg/kg QD p.o.",21.6 g and 22.8 g (2×) and 22.6 g and 22.5 g and 21.9 g and 23.0 g
same,"Days after the start of treatment/weight (g), individual animal, day 19","[2]; individual mouse, day 19, Antibody 1.14.4 3 mg/kg Q2D i.p., Lenvatinib mesylate 1 mg/kg QD p.o.",21.2 g and 23.0 g (2×) and 21.9 g and 21.4 g and 22.6 g and 20.3 g
same,"Days after the start of treatment/weight (g), individual animal, day 20","[2]; individual mouse, day 20, Antibody 1.14.4 3 mg/kg Q2D i.p., Lenvatinib mesylate 1 mg/kg QD p.o.",21.5 g and 23.2 g (3×) and 22.6 g and 22.1 g and 22.9 g
same,Tumor volume (mm^3)/Mean ± SEM Day 17,[3]; [5],891 ± 149 mm^3
same,Tumor weight (g) Mean ± SEM,"[3]; Day 17, Antibody 2E5 1 mg/kg, Lenvatinib mesylate 1 mg/kg (G2, G4, G5)",0.767 ± 0.103 g
same,Tumor growth inhibition (%),"[3]; by tumor volume, Day 17, vs hIgG4 control, Antibody 2E5 1 mg/kg, Lenvatinib mesylate 1 mg/kg (G2, G4, G5)",68.2%
same,Tumor growth inhibition (%),"[3]; tumor weight analysis (Table 21), Day 17, vs IgG4 control, Antibody 2E5 1 mg/kg, Lenvatinib mesylate 1 mg/kg (G2, G4, G5)",63.2%
same,Weight (g)/Mean ± SEM Day 17,[4]; [5],28.0 ± 0.8 g
same,Weight (g)/Mean ± SEM Day 0,"[4]; Day 0, Antibody 2E5 1 mg/kg i.p., Lenvatinib mesylate 1 mg/kg p.o. QD (G2, G4, G5)",24.9 ± 0.8 g
same,Weight (g) Changes,"[4]; Day 17 vs Day 0, Antibody 2E5 1 mg/kg, Lenvatinib mesylate 1 mg/kg (G2, G4, G5)",+3.1 g
